Patent US6043228A, “O^6 -substituted guanine derivatives, a process for their preparation and their use in treating tumor cells” (Cancer Research Campaign Technology Limited, priority 1993, dated 2000)
Several values for one entry are separate records, joined by “and”; a condition that tells them apart may be missing. Equal entries are not always repeated. Entries after “also recorded” stand apart in the source; their conditions may differ.

Legend:
[1] = Sensitivity of mammalian cells to the inactivators alone: XP cells; format: cell-based, human; conditions: human, xp cells; FIG. 6; read-out: dose required for growth inhibition relative to that required for ATase inactivation
Protocol: (§1) In order to assess the effects on cell growth alone, Xeroderma pigmentosum cells and Chinese Hamster V79 cells were exposed to increasing concentrations (up to 600 μM) of selected inactivators for 2 h at 37°. In some cases, the inactivators were allowed to undergo hydrolysis at 37° C. for 20 hours and then added to Raji cells in order to assess the extent to which the decomposition products of the agents might inhibit cell growth. After 6 days the extent of cell growth was determined as described above.

[2] = tested on: Xeroderma pigmentosum cells; assay: as above; format: cell-based, human; conditions: inactivator alone (FIG. 6)
Protocol: as §1

[3] = tested on: bone marrow cells; assay: Inactivator toxicity in bone marrow cells (GM-CFC colonies, inactivator alone); format: cell-based, human; conditions: 10 μM, 5 patients (Table 7)
Description: For the granulocyte/macrophage colony-forming cell (GM-CFC) assay primary human bone marrow samples were obtained from patients undergoing cardiothoracic surgery. […] The colonies represented precursor cells of the granulocyte/macrophage lineage (huGM-CFC). Survival was expressed as a % of the number of colonies at zero dose temozolomide.

[4] = biological target: T1, ATase in human melanoma xenografts (Homo sapiens, UniProt P16455); assay: ATase activity in human melanoma (A375) xenografts grown in nude mice after inactivator; format: in vivo; conditions: for inactivation of ATase in human melanoma xenografts, in words: single i.p. dose 30 or 60 mg/kg (FIG. 17); for ATase mean activity (fm/mg): Tumour
T1 construct: A375M cells are human melanoma cells from which the xenografts described below were established; endogenous in cells; host or cells: A375M xenograft grown in nude mice
T1 sequence (P16455 1-207): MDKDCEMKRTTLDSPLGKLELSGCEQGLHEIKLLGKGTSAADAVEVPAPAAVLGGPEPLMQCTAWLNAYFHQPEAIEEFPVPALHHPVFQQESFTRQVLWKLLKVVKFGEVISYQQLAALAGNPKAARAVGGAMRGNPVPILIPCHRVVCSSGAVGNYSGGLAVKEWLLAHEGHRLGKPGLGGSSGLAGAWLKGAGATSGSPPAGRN
Protocol: Cells (10^6) in 100 μl of PBS were injected subcutaneously into the right-hand flank of 8-10 week old nu/nu athymic mice. These cells were allowed to develop into a tumour for 3-4 weeks for passaging into experimental animals. Tumour blocks measuring 2 mm×2 mm×2 mm were implanted subcutaneously on the right hand flank. These animals were ready for use in inactivator experiments in 7-10 days.
ATase substrate DNA was prepared by incubation of purified calf thymes DNA with N-[^3 H]-methyl-N-nitrosuourea (18.7 Ci/mmole, Amersham International). Cell or tissue extracts (see 4.4) were incubated with [^3 H]-methylated-DNA substrate (100 μl containing 6.7 μg of DNA and 100 fmol of O^6 -[^3 H]methylguanine) at 37° C. for 60 mins. Following acid hydrolysis of the DNA as precviously described^21the [^3 H]-methylated protein was recovered and quantitated by liquid scintillation counting.
(§2) Mice were treated with the inactivator as a suspension in corn oil by intraperitoneal injection (i.p.) or by oral gavage (p.o.) 60 mins prior to temozolomide (100 mg/kg in 20% DMSO in phosphate-buffered saline) which was always given by intraperitoneal injection: this schedule was repeated on days 1 to 5 inclusive. Controls received vehicle alone, inactivator alone or temozolomide alone.

[5] = biological target: T1, ATase in human melanoma xenografts; assay: as above; format: in vivo; conditions: with temozolomide 50 mg/kg i.p., three consecutive days, 24 hours after final dose (FIG. 19)
[6] = biological target: T2, ATase in WiDr cells (Homo sapiens, UniProt P16455); assay: Inactivation of ATase activity in mammalian cells: WiDr; format: cell-based; conditions: read-out: Inactivation of ATase in Mammalian Cells I50
T2 construct: WiDr cells are a human colon carcinoma cell line; endogenous in cells; host or cells: WiDr
T2 sequence (P16455 1-207): T1 sequence (P16455 1-207)
Protocol: Mammalian cells were cultured under standard conditions. For example, Raji (a human lymphoblastoid cell line from a Burkitt's lymphoma) cells were grown in suspension culture in RPMI medium supplemented with 10% horse serum. A375M cells are human melanoma cells from which the xenografts described below were established following subcutaneous injection into nude mice: WiDr cells are a human colon carcinoma cell line: Hamster+120 cells are a mitozolomide-selected subline of a Chinese hamster lung fibroblast V79 cell line called RJKO: Yoshida cells are a rat carcinosarcoma cell line and YRbus is a busulphan resistant subline thereof: XP cells are an SV40-transformed fibroblast cell line originally from the skin of a Xeroderma piamentosum patient, pHMGhAT2b cells are a clone of these cells that have been transfected with a mammalian cell expression vector containing the human ATase cDNA and pHMGla cells are a clone that have been transfected with the expression vector only (i.e. one not containing the human ATase cDNA). Cell pellets were resuspended in cold (4° C.) buffer I containing 2 μg/ml leupeptin and sonicated for 10 seconds at 12μ peak to peak distance. After cooling in ice, the cells were sonicated for a further 10 seconds at 18μ. […]

[7] = tested on: Chinese Hamster V79 cells; assay: Sensitivity of mammalian cells to the inactivators alone: V79 cells; format: cell-based; conditions: inactivator alone, up to 600 μM
Protocol: as §1

[8] = tested on: Raji cells; assay: Sensitization of Raji cells to BCNU (XTT assay); format: cell-based, human
Protocol: Following a 2 hour incubation at 37° C., medium containing either increasing doses of BCNU, temozolomide or equivalent vehicle was added and the cells allowed to grow for 6 days. At this time XTT solution was added and the cells incubated for a further 4 hours at 37° C. The resulting red/orange formazan reaction product was quantified by measuring absorption at 450 nm on a microtitre platereader.

[9] = tested on: A375 tumour xenografts; assay: Xenograft study: sensitization of A375 tumour xenografts to BCNU; format: in vivo, nude mice; conditions: inactivator 30 or 60 mg/kg + BCNU 10-25 mg/kg i.p. (FIGS. 9-13)
Protocol: OX6 OPT, England (OLAC mice). […] For this reason lower doses were administered. Cells (10^6) in 100 μl of PBS were injected subcutaneously into the right-hand flank of 8-10 week old nu/nu athymic mice. […] The experimental animals were also weighed every 1-2 days. Measurements continued until tumours in the control animals reached the maximum allowable volume (i.e. 1 cm×1 cm×1 cm).

[10] = tested on: nude mice; assay: Survival of xenograft-bearing nude mice given inactivator plus temozolomide; format: in vivo, mouse
Protocol: as §2
The mice in the tests shown in FIGS. 19-24 were Swiss mouse derived athymic male mice ([…]) from ZENECA Pharmaceuticals, Mereside, Alderley Park, Macclesfield, Cheshire SK10 4T6, England.

## Nc1nc(OCc2cccs2)c2nc[nH]c2n1 [B.4205, 0^6 -thenylguanine]
[1]
  selectivity ratio: ≥ 100
[2]
  growth inhibition / toxicity to XP cells, in words: more sensitive than V79 cells; also recorded: toxic
[3]
  toxic effect of inactivator alone on bone marrow cells, in words: comparable to those for O^6 -benzylguanine
[4]; 30 mg/kg (FIG. 8)
  inactivating ATase in human melanoma xenografts, in words: as effetive as BeG
[4]
  inactivation of ATase in human melanoma xenografts, in words: inactivated
[5]
  ATase inactivation in tumour xenografts, in words: more effective in ATase inactivation in tumour xenografts than either agent alone and 10 mg/kg being ag ettentive as 60 mg/kg
[6]
  IC50: 20 nM
[7]
  growth inhibition / toxicity to V79 cells, in words: no such effects were seen
[8]; 0.1 μM inactivator (FIG. 2)
  sensitizing Raji cells to growth inhibitory effects of BCNU, in words: more effective than BeG
[8]; 1.0 μM inactivator (FIG. 2)
  sensitizing Raji cells to growth inhibitory effects of BCNU, in words: equally effective
[9]
  sensitization of A375 xenografts to BCNU (tumour volume), in words: comparable to O^6 -benzylguanine (BeG) in reducing tumour volume

## Nc1nc(OCc2cc(Br)cs2)c2nc[nH]c2n1 [B.4280, O^6-(4-bromothenyl)guanine]
[4]; 10 mg/kg i.p. (Table 10)
  recovery of tumour ATase activity, in words: very low at 24 hours but had recovered completely by 48 hours
[4]; 24 h after 10 mg/kg i.p.
  ATase mean activity (fm/mg): 36 ± 7.79 fm/mg
[4]; 48 h after 10 mg/kg i.p.
  ATase mean activity (fm/mg): 140 ± 43.87 fm/mg
[4]
  inactivation of ATase in human melanoma xenografts, in words: inactivated; also recorded: the most effective in vivo inactivator at the doses examined
[5]
  ATase inactivation in tumour xenografts, in words: more effective in ATase inactivation in tumour xenografts than either agent alone; also recorded: more effective than B.4205 at equivalent doses
[10]; with temozolomide (FIG. 24B)
  toxicity of oral combination versus i.p. route, in words: marginally less toxic than the i.p. route
[10]; with temozolomide (FIGS. 21B, 22B)
  toxicity at equi-effective doses for tumour growth inhibition, in words: less toxic than B.4205
